For one data set, the system named is mice. As to the kind of experiment: Hot Plate Test. The format is in vivo. Particulars: mouse, hot plate 54° C., 10, 30 and 100 mg/kg p.o. 15 minutes before the test. The source says: Common mouse models for pain include the Formalin Test (Wheeler-Aceto, et al., Psychopharmacology, 104, 35-44, 1991), the Hot Plate Test (Eddy and Leimbach, J. Pharmacol. Exp. Ther., 107, 385-393, 1953), and the Tail-flick Test (D'Amour and Smith, J. Pharmacol. Exp. Ther., 1, 74-79, 1941). These methods detect analgesic activity of compositions of interest. In the Formalin Test, mice are given an intraplantar injection of 5% formalin into one posterior hindpaw to induce paw licking. Test compositions are given to the mice before treatment with formalin and the mice are evaluated and compared to a control group. In the Hot Plate Test, mice are placed onto a hot metal plate maintained at 54° C. and the latency to the first foot-lick is measured. As with the Formalin test, compositions of interest are given to the mice before the test and the mice are evaluated and compared to a control group. In the Tail-flick Test, a mouse's tail is heated by means of a thermal light source, and the latency before the animal withdraws its tail is measured. […]
Mice were placed onto a hot metal plate maintained at 54° C. surrounded by a Plexiglas cylinder (height: 13 cm; diameter: 19 cm). The latency to the first foot-lick was measured (maximum: 30 seconds). […]
Data with the test substance were analyzed by comparing treated groups with vehicle control using ANOVA followed by post-hoc Dunnett's tests. […]
A general note: Hot-plate and tail-flick tests time the reaction to a heat stimulus.

The nature of data set [1]: DSC/XRPD of binary mixtures of isometheptene mucate and mannitol (eutectic formation). The class given is physicochemical. The conditions noted are these: binary mixtures at different ratios. The procedure:
Because mannitol is a common excipient in solid drug formulations, it was examined for compatibility with racemic isometheptene mucate and investigated using DSC and the interactions occurring were assessed. […] To confirm the formation of a eutectic and to characterize its physical properties, several binary mixtures at different ratios of racemic isometheptene mucate and excipient were prepared and analyzed by DSC and by XRPD. The eutectic formation improved the cohesion between the racemic isometheptene mucate and excipient particles and assured better physical linking between the two.
In order to confirm the eutectic formation and to characterize its physical properties, several binary mixtures at different ratios of racemic isometheptene mucate-excipient were prepared and analyzed by DSC and by X-ray powder diffraction (XRPD). […] For each DSC heating curve, the onset temperature and the enthalpy were evaluated both for the eutectic contribute and for the excess of component. The recorded values were plotted and a phase diagram between the two components was obtained with a characteristic profile of phase diagrams of eutectic mixtures. […]
Aliquots of racemic isometheptene mucate API and mannitol were weighed in the ratios described below and ground in an agate mortar, and the homogeneous mixtures subsequently analyzed. […]

On to `CN[C@H](C)CCC=C(C)C` [(R)-isometheptene mucate], for which the “Foot-licking latency compared to vehicle” value with mice was “longer foot-licking latency times”. Also, the “Interaction with mannitol (eutectic vs adduct)” value in data set [1] is reported as “only a physical eutectic formation”.

These data come from patent US20150258197A1, “EUTECTIC ISOMETHEPTENE MUCATE” (TONIX PHARMA HOLDINGS LIMITED, priority 2014, published 2015).
